{"source": "patent US8476455B2", "about": "“1-N-phenyl-amino-1h-imidazole derivatives and pharmaceutical compositions containing them” (Laboratoire Theramex, priority 2003, dated 2013)", "key": {"human steroid sulfatase": {"target": "T1, human steroid sulfatase (Homo sapiens, UniProt P08842)", "T1 construct": "The JEG-3 cell line is intrinsically very rich in human estrone sulfatase; endogenous in cells; host or cells: JEG-3 (human placental choriocarcinoma)", "T1 sequence (P08842 22-583)": "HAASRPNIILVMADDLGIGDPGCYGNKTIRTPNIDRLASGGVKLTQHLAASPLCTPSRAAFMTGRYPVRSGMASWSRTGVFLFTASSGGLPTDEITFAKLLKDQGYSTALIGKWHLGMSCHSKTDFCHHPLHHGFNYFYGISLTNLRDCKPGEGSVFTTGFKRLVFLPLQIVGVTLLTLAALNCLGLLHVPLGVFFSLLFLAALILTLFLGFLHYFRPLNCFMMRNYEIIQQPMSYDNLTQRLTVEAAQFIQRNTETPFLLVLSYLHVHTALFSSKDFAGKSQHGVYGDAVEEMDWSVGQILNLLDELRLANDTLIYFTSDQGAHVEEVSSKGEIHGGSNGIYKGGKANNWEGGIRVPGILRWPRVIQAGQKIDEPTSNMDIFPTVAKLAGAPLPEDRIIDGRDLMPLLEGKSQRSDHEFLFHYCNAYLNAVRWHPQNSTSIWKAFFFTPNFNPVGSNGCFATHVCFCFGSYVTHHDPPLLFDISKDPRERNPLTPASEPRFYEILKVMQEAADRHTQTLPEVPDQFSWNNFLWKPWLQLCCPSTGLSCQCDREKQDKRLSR", "experiment": "Dual aromatase and steroid sulfatase activities in JEG-3 cells: sulfatase readout", "assay_type": "cell-based", "conditions": "footnote c: dual aromatase and sulfatase activity, nd: not detected, read-out: Sulfatase activity IC50 (nM) ± S.E.M.", "experimental": "The JEG-3 cell line is intrinsically very rich in human estrone sulfatase and therefore is a useful biological system to evaluate new steroid sulfatase inhibitors in vitro. Assays were carried out with cells in logarithmic growth phase on 96-well microplates. 24 h before studies, cells were seeded in decomplemented fetal calf serum (dFCS) supplemented medium. The medium was removed 24 h later and cells were rinsed with PBS to eliminate any trace of dFCS. Then, ^3H-E1S was added in dFCS free medium, followed by test compounds at concentrations ranging from 10^−12 M to 10^−5 M. After 4 h of treatment, the medium was transferred into 96-deep-well microplates and centrifuged at 200×g for 10 min to pellet cells before toluene extraction. A fraction of the medium was used for toluene extraction in order to separate the conjugated substrate from non-conjugated products. The radioactivity in the toluene phase was measured by liquid scintillation counting. In parallel, after cell solubilization in a ethylenediamine tetraacetate solution, DNA content was measured by a standard fluorimetric method using the Hoechst 33258 fluorochrome. Finally, estrone sulfatase activity was expressed in pmoles of ^3H-E1+^3H-E2 formed/4 hours/mg DNA and estrone sulfatase inhibition as a percentage of control activity without inhibitor.\nIn order to evaluate the inhibitory potency of DASI compounds in parallel on both human aromatase and steroid sulfatase activities, a new in vitro model was set up using JEG-3 cells. The experimental conditions of the steroid sulfatase model previously described was adopted with slight modifications: the presence of the two substrates ^3-HE1S and 1β-^3H-androstenedione into the medium and an incubation period of 2 hours. Results were expressed in pmoles of product formed (^3H-E1+^3H-E2 or ^3H2O)/2 hours/mg DNA (Table 1)."}, "Ishikawa cells": {"tested_on": "Ishikawa cells", "experiment": "Alkaline phosphatase activity in Ishikawa cells (estrogenic potency)", "assay_type": "cell-based", "conditions": "hydrochloride", "experimental": "Ishikawa cells were plated into 96-well microplates 48 hours before studies. The next day, the medium was replaced by phenol red free medium supplemented with 5% charcoal-stripped dFCS. 24 hours later, the medium was renewed and compounds were added to the plated cells and incubated for an additional four-day period. […] At the end of the incubation period, alkaline phosphatase activity (APase) was assayed by a method involving the hydrolysis of p-nitrophenyl phosphate to p-nitrophenol and spectrophotometric determination of the product at 405 nm.\nIn brief, the microplates were first rinsed twice with cold phosphate buffered solution and then placed at −80° C. for at least 15 minutes. After thawing at room temperature, 50 μl ice-cold solution containing 5 mM p-nitrophenyl phosphate was added to each well. After a 15 to 60 minute incubation period at room temperature, the intensity of the yellow color generated by the production of p-nitrophenol was measured into each well at 405 nm.\nFor each tested concentration, APase activity, reflected by absorbance, was first expressed as fold increase over control (FI) and then as percentage of E2 activity (10^-8 M) chosen equal to 100%."}, "aromatase": {"tested_on": "aromatase", "experiment": "Inhibition of estradiol peak, in vivo aromatase inhibition model", "design": "species or system rat", "conditions": "female rats, 24 hours after one oral administration", "experimental": "One hundred IOPS Wistar female rats, weighing 180 to 200 g, were accommodated by four in stainless steel mesh cages. […] Vaginal smears were performed for each animal, each morning, in order to establish the different phases of cycle. […] Starting at 4.00 pm, animals received an oral administration of formulations. 24 hours later, samples of serum were collected and estradiol level were determined as previously described (Table 4)."}}, "note": "Entries after “also recorded” stand apart in the source; their conditions may differ."}
{"smiles": "Cl.N#Cc1ccc(N(Cc2ccc(OS(N)(=O)=O)c(Br)c2)n2ccnc2)cc1", "note": "[Ex 45, Sulfamic acid 2-bromo-4-{[N-(4-cyanophenyl)-N-(1H-imidazol-1yl)amino]methyl}phenyl ester, hydrochloride]", "values": [{"measurement": "IC50", "setting": "human steroid sulfatase", "value": "~10", "unit": "nM"}, {"measurement": "estrogenicity in vitro (in words)", "setting": "Ishikawa cells", "value": "not estrogenic; also recorded: lack of estrogenicity"}, {"measurement": "% inhibition (estradiol peak)", "setting": "aromatase", "value": 28, "unit": "%"}]}
